Patent publication US12195439B1, “C1-substituted isopropylamine fused heterocyclic mescaline derivatives” (Enveric Biosciences Canada Inc., priority 2022, dated 2025)

Columns and labels:
5-HT7 receptor = molecular target: T1, 5-HT7 receptor (Homo sapiens, UniProt P34969); assay: Eurofins Cerep competition binding assay at 5-HT7 receptor; conditions: 10 μM test ligand, [3H]LSD, recombinant receptor from HEK-293 cells; read-out: HT7, percent of control-specific binding
T1 construct: host or cells: HEK-293 cells (membrane preparation)

5-HT1A receptor [1] = molecular target: T2, 5-HT1A receptor (Homo sapiens, UniProt P08908); assay: 5-HT1A receptor functional cellular response (cAMP) assay; format: cell-based
T2 construct: purchased Perkin Elmer 6110501400UA
T2 sequence (P08908 1-422): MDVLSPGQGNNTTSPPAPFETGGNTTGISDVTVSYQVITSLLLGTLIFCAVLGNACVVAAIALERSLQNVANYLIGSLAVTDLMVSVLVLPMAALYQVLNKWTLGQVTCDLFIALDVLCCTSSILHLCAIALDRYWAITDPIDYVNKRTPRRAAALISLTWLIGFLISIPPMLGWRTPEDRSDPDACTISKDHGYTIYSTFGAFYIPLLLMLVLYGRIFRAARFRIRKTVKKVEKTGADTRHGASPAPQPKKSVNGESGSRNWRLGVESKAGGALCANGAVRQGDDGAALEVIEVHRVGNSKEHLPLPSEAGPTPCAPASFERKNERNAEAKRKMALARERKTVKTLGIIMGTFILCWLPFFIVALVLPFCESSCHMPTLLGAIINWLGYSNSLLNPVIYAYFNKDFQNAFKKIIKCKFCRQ

[2] = molecular target: T3, serotonin transporter (SERT) (Homo sapiens, UniProt P31645); assay: biochemical; format: binding; conditions: read-out: SERT, percent of control-specific binding
T3 construct: host or cells: CHO cells (membrane preparation)

MT1 receptor = molecular target: T4, MT1 receptor (Homo sapiens, UniProt P48039); assay: Eurofins Cerep competition binding assay at MT1 receptor; conditions: read-out: MT1, percent of control-specific binding, 10 μM test ligand, [125I]2-iodomelatonin, recombinant receptor from CHO cells
T4 construct: host or cells: CHO cells (membrane preparation)

5-HT2B receptor = molecular target: T5, 5-HT2B receptor (Homo sapiens, UniProt P41595); assay: Eurofins Cerep competition binding assay at 5-HT2B receptor; conditions: 10 μM test ligand, [3H]mesulergine, recombinant receptor from CHO cells; read-out: HT2B, percent of control-specific binding
T5 construct: host or cells: CHO cells (membrane preparation)

[3] = molecular target: T6, dopamine transporter (DAT) (Homo sapiens, UniProt Q01959); assay: Eurofins Cerep competition binding assay at dopamine transporter; conditions: read-out: DAT, percent of control-specific binding, 10 μM test ligand, [3H]BTCP, recombinant transporter from CHO cells
T6 construct: host or cells: CHO cells (membrane preparation)

[4] = molecular target: T7, norepinephrine transporter (NET) (Homo sapiens, UniProt P23975); assay: Eurofins Cerep competition binding assay at norepinephrine transporter; conditions: read-out: NET, percent of control-specific binding, 10 μM test ligand, [3H]nisoxetine, recombinant transporter from CHO cells
T7 construct: host or cells: CHO cells (membrane preparation)

alpha2A receptor = molecular target: T8, alpha2A receptor (Homo sapiens, UniProt P08913); assay: Eurofins Cerep competition binding assay at alpha2A receptor; conditions: 10 μM test ligand, [3H]RX 821002, recombinant receptor from CHO cells; read-out: α-2A, percent of control-specific binding
T8 construct: host or cells: CHO cells (membrane preparation)
T8 sequence (P08913 1-465): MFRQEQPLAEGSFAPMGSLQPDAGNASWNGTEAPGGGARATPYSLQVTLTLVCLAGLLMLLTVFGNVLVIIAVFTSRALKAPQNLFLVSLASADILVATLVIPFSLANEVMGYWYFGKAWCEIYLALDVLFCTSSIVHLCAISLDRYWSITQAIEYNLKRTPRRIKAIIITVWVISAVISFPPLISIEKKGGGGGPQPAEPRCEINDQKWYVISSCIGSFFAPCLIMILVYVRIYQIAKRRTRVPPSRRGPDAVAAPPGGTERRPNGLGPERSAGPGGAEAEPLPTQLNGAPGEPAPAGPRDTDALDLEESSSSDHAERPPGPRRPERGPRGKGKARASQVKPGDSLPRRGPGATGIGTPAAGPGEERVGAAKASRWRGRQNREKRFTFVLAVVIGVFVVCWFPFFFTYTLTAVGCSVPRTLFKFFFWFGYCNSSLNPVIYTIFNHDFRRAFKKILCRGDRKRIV

5-HT1A receptor [5] = molecular target: T2, 5-HT1A receptor; assay: Eurofins Cerep competition binding assay at 5-HT1A receptor; conditions: 10 μM test ligand, [3H]8-OH-DPAT, recombinant receptor from HEK-293 cells; read-out: HT1A, percent of control-specific binding
5-HT2A receptor = molecular target: T9, 5-HT2A receptor (Homo sapiens, UniProt P28223); assay: biochemical; format: binding; conditions: competition with 1 nM [3H]ketanserin, membranes containing 5-HT2A, SPA
T9 construct: purchased PerkinElmer ES-313-M400UA

5-HT2C receptor = molecular target: T10, 5-HT2C receptor (Homo sapiens, UniProt P28335); assay: Eurofins Cerep competition binding assay at 5-HT2C receptor; conditions: 10 μM test ligand, [125I](±)DOI, recombinant receptor from HEK-293 cells; read-out: HT2C, percent of control-specific binding
T10 construct: host or cells: HEK-293 cells (membrane preparation)
T10 sequence (P28335 33-458): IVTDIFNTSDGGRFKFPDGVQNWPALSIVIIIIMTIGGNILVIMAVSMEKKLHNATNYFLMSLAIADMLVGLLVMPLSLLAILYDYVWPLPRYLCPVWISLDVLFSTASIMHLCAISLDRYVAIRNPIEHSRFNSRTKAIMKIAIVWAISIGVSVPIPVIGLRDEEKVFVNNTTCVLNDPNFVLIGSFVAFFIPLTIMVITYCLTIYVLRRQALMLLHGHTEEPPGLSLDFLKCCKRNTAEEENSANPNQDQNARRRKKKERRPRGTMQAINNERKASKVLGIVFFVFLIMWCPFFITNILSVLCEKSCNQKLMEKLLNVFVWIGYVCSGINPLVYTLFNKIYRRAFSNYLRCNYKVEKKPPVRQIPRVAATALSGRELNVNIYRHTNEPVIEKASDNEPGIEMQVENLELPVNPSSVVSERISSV

5-HT1A receptor [6] = molecular target: T2, 5-HT1A receptor; assay: 5-HT1A receptor radioligand competition assay (SPA); format: binding; conditions: 5-HT1A, Ki, competition with 0.5 nM [3H]8-hydroxy-DPAT, membranes containing 5-HT1A

T5 sequence (P41595 whole entry): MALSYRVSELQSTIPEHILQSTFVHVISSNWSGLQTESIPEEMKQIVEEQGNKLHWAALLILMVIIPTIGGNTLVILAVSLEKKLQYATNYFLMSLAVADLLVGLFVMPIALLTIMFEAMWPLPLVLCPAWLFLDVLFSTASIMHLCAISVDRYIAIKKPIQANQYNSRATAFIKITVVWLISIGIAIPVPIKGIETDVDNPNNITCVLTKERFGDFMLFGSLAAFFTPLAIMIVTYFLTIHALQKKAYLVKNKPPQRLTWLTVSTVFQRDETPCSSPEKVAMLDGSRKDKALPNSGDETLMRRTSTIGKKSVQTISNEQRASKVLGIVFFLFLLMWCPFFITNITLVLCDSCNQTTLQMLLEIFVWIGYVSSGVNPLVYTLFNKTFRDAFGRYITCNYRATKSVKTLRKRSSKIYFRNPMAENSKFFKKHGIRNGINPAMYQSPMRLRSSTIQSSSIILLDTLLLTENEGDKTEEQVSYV
T9 sequence (P28223 whole entry): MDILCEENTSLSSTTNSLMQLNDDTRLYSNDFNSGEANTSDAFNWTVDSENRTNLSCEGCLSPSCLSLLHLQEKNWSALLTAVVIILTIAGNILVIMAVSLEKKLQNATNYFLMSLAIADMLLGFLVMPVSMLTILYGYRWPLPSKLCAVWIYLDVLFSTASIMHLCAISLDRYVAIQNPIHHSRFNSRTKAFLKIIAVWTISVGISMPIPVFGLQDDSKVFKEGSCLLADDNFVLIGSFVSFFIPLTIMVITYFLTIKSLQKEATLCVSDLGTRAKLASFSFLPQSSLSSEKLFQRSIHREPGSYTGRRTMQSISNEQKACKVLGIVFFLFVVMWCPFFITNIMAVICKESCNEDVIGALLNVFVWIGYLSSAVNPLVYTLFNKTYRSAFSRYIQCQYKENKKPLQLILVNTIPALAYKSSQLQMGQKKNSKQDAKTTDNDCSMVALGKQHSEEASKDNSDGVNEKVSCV
T3 sequence (P31645 whole entry): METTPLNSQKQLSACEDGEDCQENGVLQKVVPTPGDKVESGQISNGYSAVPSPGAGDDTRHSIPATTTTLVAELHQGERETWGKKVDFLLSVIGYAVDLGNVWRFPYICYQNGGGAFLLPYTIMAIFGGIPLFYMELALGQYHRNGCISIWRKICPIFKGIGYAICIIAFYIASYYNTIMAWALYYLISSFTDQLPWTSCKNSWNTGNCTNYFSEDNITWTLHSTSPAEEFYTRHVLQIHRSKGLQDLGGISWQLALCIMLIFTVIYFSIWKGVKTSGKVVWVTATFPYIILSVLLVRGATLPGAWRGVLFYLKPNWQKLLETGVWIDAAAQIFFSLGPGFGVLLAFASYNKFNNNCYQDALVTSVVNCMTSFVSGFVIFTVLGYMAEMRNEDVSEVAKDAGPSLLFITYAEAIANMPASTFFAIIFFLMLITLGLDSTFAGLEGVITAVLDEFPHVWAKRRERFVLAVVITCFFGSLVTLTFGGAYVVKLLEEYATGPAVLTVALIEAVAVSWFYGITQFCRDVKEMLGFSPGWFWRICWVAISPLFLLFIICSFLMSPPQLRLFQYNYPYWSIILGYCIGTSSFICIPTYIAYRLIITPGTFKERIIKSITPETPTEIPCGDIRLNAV
T4 sequence (P48039 whole entry): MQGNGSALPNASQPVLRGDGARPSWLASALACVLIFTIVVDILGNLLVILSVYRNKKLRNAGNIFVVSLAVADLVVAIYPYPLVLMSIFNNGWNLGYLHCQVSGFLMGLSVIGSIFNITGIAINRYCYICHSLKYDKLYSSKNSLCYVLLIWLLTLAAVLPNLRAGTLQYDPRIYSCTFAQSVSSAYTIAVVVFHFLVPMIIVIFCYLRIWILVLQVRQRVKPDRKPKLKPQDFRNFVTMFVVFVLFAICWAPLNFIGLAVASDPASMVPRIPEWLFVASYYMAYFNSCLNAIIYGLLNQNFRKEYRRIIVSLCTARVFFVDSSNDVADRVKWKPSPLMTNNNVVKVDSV
T6 sequence (Q01959 whole entry): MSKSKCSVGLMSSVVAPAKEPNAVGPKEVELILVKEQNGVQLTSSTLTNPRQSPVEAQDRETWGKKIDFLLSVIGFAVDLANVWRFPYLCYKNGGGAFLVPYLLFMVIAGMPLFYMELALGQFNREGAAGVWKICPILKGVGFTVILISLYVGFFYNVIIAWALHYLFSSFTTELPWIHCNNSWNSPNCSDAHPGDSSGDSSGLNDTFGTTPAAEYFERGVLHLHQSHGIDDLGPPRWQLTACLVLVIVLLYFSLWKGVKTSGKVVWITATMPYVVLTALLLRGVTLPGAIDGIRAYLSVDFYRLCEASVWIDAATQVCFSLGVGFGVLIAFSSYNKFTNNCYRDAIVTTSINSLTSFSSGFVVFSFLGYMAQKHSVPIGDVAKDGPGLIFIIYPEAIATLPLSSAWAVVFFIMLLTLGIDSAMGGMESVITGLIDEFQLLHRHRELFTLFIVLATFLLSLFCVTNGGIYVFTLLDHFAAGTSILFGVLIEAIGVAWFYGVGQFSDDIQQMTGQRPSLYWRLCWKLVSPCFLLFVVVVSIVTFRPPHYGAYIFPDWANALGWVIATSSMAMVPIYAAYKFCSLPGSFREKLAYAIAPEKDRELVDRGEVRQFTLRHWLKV
T1 sequence (P34969 whole entry): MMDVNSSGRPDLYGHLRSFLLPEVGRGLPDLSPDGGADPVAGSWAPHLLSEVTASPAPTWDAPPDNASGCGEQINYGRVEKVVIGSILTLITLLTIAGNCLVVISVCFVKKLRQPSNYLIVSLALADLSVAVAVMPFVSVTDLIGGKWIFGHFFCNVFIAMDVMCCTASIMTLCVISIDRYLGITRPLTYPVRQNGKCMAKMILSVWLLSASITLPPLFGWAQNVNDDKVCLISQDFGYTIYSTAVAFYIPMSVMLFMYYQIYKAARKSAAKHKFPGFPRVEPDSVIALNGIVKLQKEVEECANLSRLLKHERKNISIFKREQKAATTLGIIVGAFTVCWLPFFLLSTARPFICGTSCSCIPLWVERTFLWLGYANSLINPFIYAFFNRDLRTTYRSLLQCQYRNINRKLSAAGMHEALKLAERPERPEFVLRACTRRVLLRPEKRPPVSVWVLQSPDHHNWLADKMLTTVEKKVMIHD
T7 sequence (P23975 whole entry): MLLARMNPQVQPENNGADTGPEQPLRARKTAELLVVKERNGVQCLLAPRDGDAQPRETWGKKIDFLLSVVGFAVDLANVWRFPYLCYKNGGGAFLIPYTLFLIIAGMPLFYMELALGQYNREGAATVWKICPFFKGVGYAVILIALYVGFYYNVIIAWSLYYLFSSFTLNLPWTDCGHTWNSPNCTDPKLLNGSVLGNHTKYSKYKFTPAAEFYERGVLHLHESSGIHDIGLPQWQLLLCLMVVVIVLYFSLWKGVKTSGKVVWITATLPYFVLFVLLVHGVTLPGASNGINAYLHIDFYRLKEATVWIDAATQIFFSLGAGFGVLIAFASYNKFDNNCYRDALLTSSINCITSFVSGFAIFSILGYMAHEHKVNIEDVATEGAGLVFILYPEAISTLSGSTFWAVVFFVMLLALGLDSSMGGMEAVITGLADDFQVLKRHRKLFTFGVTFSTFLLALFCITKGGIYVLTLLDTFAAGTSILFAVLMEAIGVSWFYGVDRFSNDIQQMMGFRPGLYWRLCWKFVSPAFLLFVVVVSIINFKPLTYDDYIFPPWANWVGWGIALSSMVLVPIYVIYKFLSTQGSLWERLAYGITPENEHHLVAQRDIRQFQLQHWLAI

CC(C(=O)c1ccc2c(c1)OCO2)N(C)Cc1ccccc1 (racemic) [A(III)]
inhibition at 10 µM (5-HT7 receptor): 0% | EC50 (5-HT1A receptor [1]): > 1 mM | inhibition at 10 µM [2]: 5% | inhibition at 10 µM (MT1 receptor): 77% | inhibition at 10 µM (5-HT2B receptor): 32% | inhibition at 10 µM [3]: 74% | inhibition at 10 µM [4]: 38% | inhibition at 10 µM (alpha2A receptor): 42% | inhibition at 10 µM (5-HT1A receptor [5]): 4% | Ki (5-HT2A receptor): 53 µM | inhibition at 10 µM (5-HT2C receptor): 7% | Ki (5-HT1A receptor [6]): 49 µM
